One data set concerns the target T1, CYP3A4 (Homo sapiens, UniProt P08684).
T1 construct: host or cells: human hepatic microsomes or recombinant isoenzyme (not distinguished)
Briefly: CYP inhibition: CYP3A4. The class given is in vitro ADME. The note with it: human hepatic microsomes or recombinant isoenzymes. The text has this:
(§1) It is possible that in certain clinical trial subjects, such agents may need to be adjusted for dosing or replaced by alternative agents that are not metabolized by CYP2D6, particularly when such agents may have a low therapeutic index.

Another data set relates to tumor volume. Kind of data set: Patients: tumor volume by MRI. Format: in vivo, human. The text has this:
Antitumor activity: Previously used radiographic response and progression criteria (see, e.g., Widemann et al., J. Clin. Oncol., January 2006, 24(3):507-16; and di Tomaso, “Preliminary success with anti-angiogenic therapy of NF2-related tumors” (Meeting abstract) 2008 NF Conference, Children's Tumor Foundation, Bonita Springs, Fla., Jun. 6-10, 2008) can be used to evaluate the ability of a Compound to specifically induce tumor shrinkage.
Timing of Tumor Volume Assessment: Subjects may undergo tumor volume measurement at screening, and at various times throughout the treatment protocol.
Method of Assessment: The determination of antitumor efficacy may be based on objective tumor assessments made according to volumetric measurement (see Widemann et al., J Clin Oncol. 2006 Jan. 20; 24(3):507-16; di Tomaso et al., Preliminary success with anti-angiogenic therapy of NF2-related tumors. (Meeting abstract). 2008 NF Conference, Children's Tumor Foundation, Bonita Springs, Fla., Jun. 6-10, 2008; Harris et al., Neurosurgery. 2008 June 62(6): 1314-9) and treatment decisions by the physician can be based on these assessments.
The MRI examinations may be performed using a standard head coil with 1.5-T scanners. […] For VS quantitative assessment, the MRI scans may be transmitted to a Vitrea2 workstation (Vital Images, Minnetonka, Minn.) for image processing and volume calculation.

Another data set deals with T2, CYPC19 (Homo sapiens, UniProt P33261).
T2 construct: host or cells: human hepatic microsomes or recombinant isoenzyme (not distinguished)
Kind of data set: CYP inhibition: CYPC19. Format: in vitro ADME. To be noted: human hepatic microsomes or recombinant isoenzymes.
Source text: as §1

The test system of data set [1] is bacterial reverse mutation. Kind of data set: Bacterial reverse mutation study. Format: cell-based. The note with it: with and without metabolic activation. Here is the method: Genotoxicity was assessed in a battery of in vitro and in vivo studies that included a bacterial reverse mutation study, a chromosome aberration study in Chinese hamster ovary (CHO) cells, and a micronucleus study in rats by the oral route. The in vitro studies were performed in the presence and absence of an exogenous metabolic activation system.

Data set [2] concerns human VEGF121 and VEGF165. Briefly: HT1080 xenograft time course: pathologic plasma human VEGF. Format: in vivo. How it is done:
(§2) Experimental Design. HT1080 cells (5×10^6 cells/mouse) were implanted subcutaneously in male athymic nude mice.
Tumor size was measured by calipers immediately pre-treatment and at the time of sacrifice on Day 1, 2, or 3 (5 mice per group per day). At sacrifice, the plasma was collected for assay of pathologic human VEGF concentration using an ELISA that recognizes human VEGF121 and VEGF165 (as described in Section 9.1.1.1).

The subject of the next data set is HT1080 xenografts. Kind of data set: HT1080 xenograft dose response: tumor growth. The class given is in vivo, athymic nude mice. The note with it: 18 days. How it is done:
Experimental Study Design. HT1080 cells (5×10^6 cells/mouse) were implanted subcutaneously in male athymic nude mice.
Tumor size was measured using calipers at periodic intervals during the study (data shown in Section 9.2.2). […] The study was ended after 18 days, when the vehicle treated tumors reached a mean volume of ˜1755 mm^3. […] Mice were sacrificed, and excised tumors were homogenized in buffer containing protease inhibitors. Both terminal intratumoral and pathologic plasma human VEGF levels were measured using an ELISA that recognizes human VEGF121 and VEGF165 (as described in Section 9.1.1.1). Intratumoral VEGF levels were normalized to the total tumor protein concentration, while pathologic plasma human VEGF levels were expressed in pg/mL of plasma.
Experimental Design. The experimental design was reported in Section 9.1.2.2.

The test system of data set [3] is soluble VEGF121 and VEGF165 isoforms. Briefly: ELISA of soluble VEGF121/165 production in HeLa cells during hypoxia or normoxia. The class given is cell-based, human. The note with it: 48 hours. Here is the method:
Experimental Design. HeLa (human cervical carcinoma) cell cultures were established under normoxic conditions (21% oxygen). HeLa cells increase VEGF production 4- to 5-fold in response to hypoxia. […] At the completion of treatment, the conditioned media were collected and the VEGF protein levels were assayed in an enzyme-linked immunosorbent assay (ELISA) with primary antibodies that recognize the soluble VEGF121 and VEGF165 isoforms (R & D Systems, Minneapolis, Minn., USA). To ensure that decreases in VEGF concentration were not due to cytotoxicity, cultures were assayed using a standard assay ([…]-GLO® Luminescent Cell Viability Assay; Promega, Madison, Wis., USA) that measures total cellular adenosine triphosphate (ATP) concentrations as an indicator of cell viability.
For orientation: ELISA stands for enzyme-linked immunosorbent assay.

A further data set concerns tumor VEGF. Briefly: Tumor VEGF content ELISA in microvessel density study, HT1080 xenografts. To be noted: racemic mixture, 5 mg/kg of Compound #10 oral BID, 10 days. Format: in vivo, human. Here is the method:
as §2
At the end of treatment, the mice were sacrificed. Excised tumors were assayed by ELISA for VEGF content as described in Section 9.1.1.1, and were sectioned and immunostained with an anti murine CD31 antibody that is specific for endothelial cells.

A short description of data set [4]: 14C-Compound #10 tissue distribution by quantitative whole-body autoradiography (Tables 23, 33). The class given is in vivo. To be noted: rats, single oral 50 mg/kg.
Description: For the QWBA, the carcasses were prepared by immediately freezing them, embedding them in chilled carboxymethylcellulose, and freezing them into blocks. Appropriate cryomicrotome sections of the blocks at 40 μm thickness were collected on adhesive tape. Mounted sections were tightly wrapped and exposed on phosphorimaging screens along with plastic embedded autoradiographic standards. Exposed screens were scanned and the autoradiographic standard image data were sampled to create a calibrated standard curve. Specified tissues, organs, and fluids were analyzed.
Data set [5] is described as follows: Cardiovascular safety pharmacology in awake telemeterized dogs. The class given is in vivo, beagle dogs. To be noted: single oral doses of 30, 60, and 120 mg/kg, male dogs.
Data set [6] is described as follows: Oral pharmacokinetics / toxicokinetics in rats. Format: in vivo, Sprague Dawley rats. How it is done: The pharmacokinetic evaluations in mice were adjuncts to the primary pharmacodynamic xenograft studies. The evaluations in rats included toxicokinetic assessments in single-dose, 7-day, and 28-day toxicology studies as well as a mass-balance study after a single oral dose of ^14C-Compound #10. The evaluations in dogs included toxicokinetic assessments in 7-day and 28-day toxicology studies. In the studies performed, rodents were dosed once daily with Compound #10 formulated in vehicle and administered via oral gavage.

The nature of data set [7]: 28-day oral toxicity study in rats (14-day recovery). The class given is in vivo. Here is the method:
A battery of genotoxicity studies was also performed. […] The L23 vehicle was used.
Exposures were maximal at 120 mg/kg/day.

Each structure is given as a SMILES string.

T1 sequence (P08684 whole entry): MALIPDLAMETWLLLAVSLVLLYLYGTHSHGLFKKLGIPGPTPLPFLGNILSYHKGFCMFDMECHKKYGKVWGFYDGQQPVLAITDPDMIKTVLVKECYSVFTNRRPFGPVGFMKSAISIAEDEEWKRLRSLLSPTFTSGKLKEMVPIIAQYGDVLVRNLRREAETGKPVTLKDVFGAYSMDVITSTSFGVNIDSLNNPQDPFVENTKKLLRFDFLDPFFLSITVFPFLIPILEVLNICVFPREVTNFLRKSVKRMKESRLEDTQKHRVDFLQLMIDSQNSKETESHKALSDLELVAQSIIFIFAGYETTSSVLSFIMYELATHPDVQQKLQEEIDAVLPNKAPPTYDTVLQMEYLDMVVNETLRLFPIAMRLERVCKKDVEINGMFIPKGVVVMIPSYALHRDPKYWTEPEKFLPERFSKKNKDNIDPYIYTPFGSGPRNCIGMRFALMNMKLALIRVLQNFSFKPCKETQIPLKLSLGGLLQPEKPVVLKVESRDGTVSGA
T2 sequence (P33261 whole entry): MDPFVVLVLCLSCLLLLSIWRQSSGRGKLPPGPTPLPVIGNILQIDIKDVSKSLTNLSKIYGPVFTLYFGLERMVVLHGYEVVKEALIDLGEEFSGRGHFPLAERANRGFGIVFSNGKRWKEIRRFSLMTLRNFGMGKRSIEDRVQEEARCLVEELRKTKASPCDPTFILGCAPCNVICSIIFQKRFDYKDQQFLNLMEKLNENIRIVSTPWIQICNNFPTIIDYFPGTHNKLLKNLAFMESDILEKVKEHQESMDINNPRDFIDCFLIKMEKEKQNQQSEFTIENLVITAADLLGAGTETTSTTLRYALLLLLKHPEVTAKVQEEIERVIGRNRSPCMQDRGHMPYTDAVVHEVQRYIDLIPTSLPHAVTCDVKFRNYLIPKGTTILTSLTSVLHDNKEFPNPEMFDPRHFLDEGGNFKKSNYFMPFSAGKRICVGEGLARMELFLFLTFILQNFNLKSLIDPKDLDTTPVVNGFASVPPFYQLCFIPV

Take `COc1ccc(C2c3[nH]c4ccc(Cl)cc4c3CCN2C(=O)Oc2ccc(Cl)cc2)cc1` (racemic) [Compound #10]: on CYP3A4, the “Inhibition of CYP3A4” value is recorded as “No meaningful inhibition”. The “Tumor volume, one patient (FIG. 40)” value in the data set on tumor volume was “reducing and stabilizing tumor volume”. On CYPC19, the “Inhibition of CYPC19” value was “No meaningful inhibition”. The “Genotoxic effects, bacterial reverse mutation” value in [1] is reported as “no evidence of genotoxic effects”. In [2] (Days 2 and 3), the “Course of pathologic plasma human VEGF concentrations” value is “continued to decline”. Further, the “Pathologic plasma human VEGF levels vs control animals” value in data set [2] (by Day 1) is given as “numerically lower than in control animals”. The “Toxicity on observing the animals” value in the data set with HT1080 xenografts (HT1080 xenograft mice) is recorded as “no overt toxicity”. Besides, the “Dose levels at which maximum antitumor activity was observed” value with HT1080 xenografts (HT1080 xenografts) is on record as no less than 1 mg/kg BID. In data set [3] (hypoxia-induced), the “Inhibition of stress-induced VEGF production (FIG. 25)” value is recorded as “inhibit stress-induced VEGF production”. In addition, in data set [3] (hypoxic (1% oxygen)), the “Maximal decrease in VEGF concentration in conditioned media” value came out at 87% and the “Mean VEGF concentration in conditioned media at maximal decrease” value was determined as 175 pg/mL. For the same molecule, in [3] (normoxic), the “Decrease in VEGF concentration in conditioned media” value came out at 39% and the “Mean VEGF concentration in conditioned media in the presence of compound” value is reported as 157 pg/mL. Further, the “Mean inhibition of tumor VEGF concentration” value with tumor VEGF is 95%. In addition, the “Tmax of radioactivity in blood and plasma” value in data set [4] (both sexes) is reported as 4 hours postdose. Further, in data set [4], the Blood-brain barrier penetration result is “penetrates the blood-brain barrier” and the “Overt signs of toxicity” value was “no overt signs of toxicity”. In addition, the “Changes in cardiovascular or electrocardiographic (including QT interval) parameters” value in data set [5] is “no meaningful changes”. Also, the Oral bioavailability entry in data set [6] is given as “orally bioavailable”. Further, in data set [7], the “NOAEL for 28-days” value is listed as 12 mg/kg/day. Moreover, the “Dose of maximal exposures” value in [7] (28-day oral gavage) is listed as 120 mg/kg/day. Besides, in data set [7] (28-day, all dose levels), the Adrenal weights result is given as “Increased”.

The values are drawn from patent US20120157401A1, “METHODS FOR TREATING NEUROFIBROMATOSIS” (PTC Therapeutics, Inc., priority 2009, published 2012).
